These are literature values, as cited in patent US20110166946A1, “METHOD OF PROMOTING AND SELLING COFFEE” (NESTEC S.A., priority 2008, published 2011).

The conditions of series [1]: in vivo.
The conditions of series [2]: after 50 μM chlorogenic acid intestinal perfusion, rat.
The conditions of series [3]: preclinical models.

On to `Oc1cc(O)c2c(c1)O[C@H](c1cc(O)c(O)c(O)c1)[C@H](O)C2` [EGC, (−)-Epigallocatechin], for which, in series [1], the “time of appearance in blood after ingestion” value was at most 30 min and the “time to reach baseline level after ingestion” value was at most 12 h.

As to `O=C(/C=C/c1ccc(O)c(O)c1)O[C@@H]1C[C@](O)(C(=O)O)C[C@@H](O)[C@H]1O` [chlorogenic acid, 5-caffeoylquinic acid], the “isoferulic acid detected in plasma” value in series [2] was 0.12 µM. In addition, the “time of appearance of conjugated forms of CA in plasma after ingestion” value in series [3] is recorded as 30 min.
